For data set [1] the following is noted: T2-Db lysate with protease inhibitors; Fig. 5.
In data set [2] the test system is T2-Db cells. It counts as cell-based. The settings on record: chloroquine: preincubation 80 μM, infection 60 μM, assay 5 μM; Fig. 6.
For data set [3], the system named is T2-Db cells. The experiment in a line: 4-h 51Cr CTL assay, clone F5, T2-Db cells with added synthetic peptide. Format: cell-based.
In the next data set the test system is L-Db cells. It counts as cell-based, Murine. As to conditions: BFA; functional TAP complex; Fig. 6 a.
Another data set relates to T2-Kk cells. Format: cell-based. The settings on record: Kk-restricted anti-[…] line, E:T 10:1, Fig. 9 e.

MASNENMDAM [M366-374]: the “in vitro degradation after cell lysis” value in data set [1] is on record as “Little in vitro degradation of M366-374 occurs after cell lysis”.
For the compound `CCN(CC)CCCC(C)Nc1ccnc2cc(Cl)ccc12` (stereo not drawn) [chloroquine], in the data set with T2-Db cells [2], the “effect on processing and presentation of L+M364 and L+IMP in T2-Db cells” value was “no effect”.
Regarding IASNENMDAM [365-374], the “relative potency in sensitizing T2-Db cells for lysis” value with T2-Db cells [3] (relative to 366-374, Fig. 3 a) is reported as “followed by 365-374”.
For QIASNENMDAM [364-374], the “loss of potency in sensitizing T2-Db cells for lysis (fold less potent)” value in the data set on T2-Db cells [3] (Fig. 3 a) was “over 10,000 fold”.
For the compound `C[C@H]1CCC/C=C/[C@@H]2C[C@H](O)C[C@H]2[C@H](O)/C=C/C(=O)O1` [BFA, brefeldin A], in the data set with L-Db cells, the “effect on presentation of L+ and L- polypeptides in L-Db cells” value was “Inhibition of presentation of both the L+ and L-polypeptides in L-Db cells”.
With SDYEGRLI, the “lowest peptide concentration at which pulsed T2 transfectants are recognized” value in the data set on T2-Kk cells was at most 0.5 nM.

(Values after paper PMC2191966 (The Journal of Experimental Medicine, 1995).)
